Reference: US11541107B2, “Peptides and T cells for use in immunotherapeutic treatment of various cancers” (Immatics Biotechnologies GmbH, priority 2015, dated 2023)

Test system: HLA-A*24
Experiment: MHC binding assay, UV-ligand exchange with beta2m ELISA, HLA-A*24
Design: species or system human
Settings: binding to HLA-A*24 ranged by peptide exchange yield (UV-ligand exchange, beta2m ELISA)
Description: Candidate peptides for T cell based therapies according to the present invention were further tested for their MHC binding capacity (affinity). The individual peptide-MHC complexes were produced by UV-ligand exchange, where a UV-sensitive peptide is cleaved upon UV-irradiation, and exchanged with the peptide of interest as analyzed. Only peptide candidates that can effectively bind and stabilize the peptide-receptive MHC molecules prevent dissociation of the MHC complexes. To determine the yield of the exchange reaction, an ELISA was performed based on the detection of the light chain (ß2 m) of stabilized MHC complexes. The assay was performed as generally described in Rodenko et al. (Rodenko et al., 2006).
96 well MAXISorp plates (NUNC) were coated over night with 2 ug/ml streptavidin in PBS at room temperature, washed 4× and blocked for 1 h at 37° C. in 2% BSA containing blocking buffer. […] Peptide-MHC monomers of the UV-exchange reaction were diluted 100 fold in blocking buffer. Samples were incubated for 1 h at 37° C., washed four times, incubated with 2 ug/ml HRP conjugated anti-β2 m for 1h at 37° C., washed again and detected with TMB solution that is stopped with […]. Absorption was measured at 450 nm. Candidate peptides that show a high exchange yield (preferably higher than 50%, most preferred higher than 75%) are generally preferred for a generation and production of antibodies or fragments thereof, and/or T cell receptors or fragments thereof, as they show sufficient avidity to the MHC molecules and prevent dissociation of the MHC complexes.

Row | Peptide exchange | Substance
1 | ++ (20%-49% = ++) | 309 (KYYRQTLLF; listed as Homo sapiens) [compound 309]
2 | ++++ (>=75% = ++++) | 379 (VFIAQGYTL; listed as Homo sapiens) [compound 379]
3 | +++ (50%-75% = +++) | 270 (YYSQESKVLYL; listed as Homo sapiens) [compound 270]
4 | ++ (20%-49% = ++) | 288 (VYPDTVALTF; listed as Homo sapiens) [compound 288]
5 | ++++ (>=75% = ++++) | 135 (VYEAMVPLF; listed as Homo sapiens) [compound 135]
6 | +++ (50%-75% = +++) | 112 (IYNFVESKL; listed as Homo sapiens) [compound 112]
7 | ++++ (>=75% = ++++) | 231 (AFADVSVKF; listed as Homo sapiens) [compound 231]
8 | +++ (50%-75% = +++) | 127 (QYFTGNPLF; listed as Homo sapiens) [compound 127]
9 | ++++ (>=75% = ++++) | 148 (SYGTVSQIF; listed as Homo sapiens) [compound 148]
10 | ++++ (>=75% = ++++) | 182 (AYAQLGYLLF; listed as Homo sapiens) [compound 182]
11 | +++ (50%-75% = +++) | 145 (VYALKVRTI; listed as Homo sapiens) [compound 145]
12 | +++ (50%-75% = +++) | 300 (TYPSQLPSL; listed as Homo sapiens) [compound 300]
13 | +++ (50%-75% = +++) | 234 (SYLPAIWLL; listed as Homo sapiens) [compound 234]
14 | +++ (50%-75% = +++) | 251 (VYTKALSSL; listed as Homo sapiens) [compound 251]
15 | +++ (50%-75% = +++) | 193 (LYLENNAQTQF; listed as Homo sapiens) [compound 193]
16 | ++++ (>=75% = ++++) | 292 (FYPQIINTF; listed as Homo sapiens) [compound 292]
17 | ++ (20%-49% = ++) | 267 (SFLNIEKTEILF; listed as Homo sapiens) [compound 267]
18 | +++ (50%-75% = +++) | 317 (VFDTSIAQLF; listed as Homo sapiens) [compound 317]
19 | +++ (50%-75% = +++) | 377 (QYTPHSHQF; listed as Homo sapiens) [compound 377]
20 | +++ (50%-75% = +++) | 235 (VYKDSIYYI; listed as Homo sapiens) [compound 235]
21 | ++++ (>=75% = ++++) | 197 (IFTDIFHYL; listed as Homo sapiens) [compound 197]
22 | +++ (50%-75% = +++) | 230 (TYGMVMVTF; listed as Homo sapiens) [compound 230]
23 | +++ (50%-75% = +++) | 168 (RYLEAALRL; listed as Homo sapiens) [compound 168]
24 | +++ (50%-75% = +++) | 285 (VYVGDALLHAI; listed as Homo sapiens) [compound 285]
25 | +++ (50%-75% = +++) | 131 (EYLDRIGQLFF; listed as Homo sapiens) [compound 131]

Row | Peptide exchange | Substance
26 | +++ (50%-75% = +++) | 176 (FYINGQYQF; listed as Homo sapiens) [compound 176]
27 | ++++ (>=75% = ++++) | 265 (SYLNEAFSF; listed as Homo sapiens) [compound 265]
28 | +++ (50%-75% = +++) | 242 (VYGEPRELL; listed as Homo sapiens) [compound 242]
29 | +++ (50%-75% = +++) | 227 (IYRFITERF; listed as Homo sapiens) [compound 227]
30 | +++ (50%-75% = +++) | 281 (NYSPGLVSLIL; listed as Homo sapiens) [compound 281]
31 | +++ (50%-75% = +++) | 188 (GYKTFFNEF; listed as Homo sapiens) [compound 188]
32 | +++ (50%-75% = +++) | 141 (SYNGHLTIWF; listed as Homo sapiens) [compound 141]
33 | ++ (20%-49% = ++) | 226 (MYLKLVQLF; listed as Homo sapiens) [compound 226]
34 | +++ (50%-75% = +++) | 165 (EYFTPLLSGQF; listed as Homo sapiens) [compound 165]
35 | ++ (20%-49% = ++) | 123 (VYTPVLEHL; listed as Homo sapiens) [compound 123]
36 | ++++ (>=75% = ++++) | 114 (QYLDGTWSL; listed as Homo sapiens) [compound 114]
37 | ++++ (>=75% = ++++) | 129 (KYIDYLMTW; listed as Homo sapiens) [compound 129]
38 | ++++ (>=75% = ++++) | 311 (EYLQNLNHI; listed as Homo sapiens) [compound 311]
39 | ++++ (>=75% = ++++) | 116 (AYVIAVHLF; listed as Homo sapiens) [compound 116]
40 | +++ (50%-75% = +++) | 169 (NYITGKGDVF; listed as Homo sapiens) [compound 169]
41 | ++++ (>=75% = ++++) | 217 (IYISNSIYF; listed as Homo sapiens) [compound 217]
42 | +++ (50%-75% = +++) | 361 (TYADIGGLDNQI; listed as Homo sapiens) [compound 361]
43 | ++++ (>=75% = ++++) | 275 (KYGTLDVTF; listed as Homo sapiens) [compound 275]
44 | ++++ (>=75% = ++++) | 120 (GYIEHFSLW; listed as Homo sapiens) [compound 120]
45 | +++ (50%-75% = +++) | 199 (SYLNHLNNL; listed as Homo sapiens) [compound 199]
46 | +++ (50%-75% = +++) | 139 (IFGIFPNQF; listed as Homo sapiens) [compound 139]
47 | +++ (50%-75% = +++) | 133 (KYLEDMKTYF; listed as Homo sapiens) [compound 133]
48 | ++++ (>=75% = ++++) | 109 (LFITGGQFF; listed as Homo sapiens) [compound 109]
49 | ++++ (>=75% = ++++) | 264 (LYTETRLQF; listed as Homo sapiens) [compound 264]
50 | +++ (50%-75% = +++) | 352 (QYGGDLTNTF; listed as Homo sapiens) [compound 352]

Row | Peptide exchange | Substance
51 | +++ (50%-75% = +++) | 195 (AYIKGGWIL; listed as Homo sapiens) [compound 195]
52 | +++ (50%-75% = +++) | 306 (VYPAEQPQI; listed as Homo sapiens) [compound 306]
53 | +++ (50%-75% = +++) | 205 (VYPVVLNQI; listed as Homo sapiens) [compound 205]
54 | ++++ (>=75% = ++++) | 252 (AFGQETNVPLNNF; listed as Homo sapiens) [compound 252]
55 | ++ (20%-49% = ++) | 246 (KYLSVQLTL; listed as Homo sapiens) [compound 246]
56 | ++++ (>=75% = ++++) | 211 (VFKSEGAYF; listed as Homo sapiens) [compound 211]
57 | +++ (50%-75% = +++) | 247 (SFTKTSPNF; listed as Homo sapiens) [compound 247]
58 | ++++ (>=75% = ++++) | 280 (TYNPNLQDKL; listed as Homo sapiens) [compound 280]
59 | +++ (50%-75% = +++) | 110 (SYPKIIEEF; listed as Homo sapiens) [compound 110]
60 | + (<20% = +) | 124 (TYKDYVDLF; listed as Homo sapiens) [compound 124]
61 | +++ (50%-75% = +++) | 341 (SYLTQHQRI; listed as Homo sapiens) [compound 341]
62 | +++ (50%-75% = +++) | 244 (VHFEDTGKTLLF; listed as Homo sapiens) [compound 244]
63 | ++ (20%-49% = ++) | 198 (DYVGFTLKI; listed as Homo sapiens) [compound 198]
64 | ++++ (>=75% = ++++) | 296 (SYQVIFQHF; listed as Homo sapiens) [compound 296]
65 | +++ (50%-75% = +++) | 369 (VYTHEVVTL; listed as Homo sapiens) [compound 369]
66 | +++ (50%-75% = +++) | 294 (RFPVQGTVTF; listed as Homo sapiens) [compound 294]
67 | +++ (50%-75% = +++) | 382 (AYLPPLQQVF; listed as Homo sapiens) [compound 382]
68 | ++ (20%-49% = ++) | 212 (SYAPPSEDLF; listed as Homo sapiens) [compound 212]
69 | +++ (50%-75% = +++) | 218 (LYSELNKWSF; listed as Homo sapiens) [compound 218]
70 | ++++ (>=75% = ++++) | 208 (TYLEKIDGF; listed as Homo sapiens) [compound 208]
71 | +++ (50%-75% = +++) | 342 (NYAFLHRTL; listed as Homo sapiens) [compound 342]
72 | +++ (50%-75% = +++) | 348 (IYLEHTESI; listed as Homo sapiens) [compound 348]
73 | ++++ (>=75% = ++++) | 272 (RYVFPLPYL; listed as Homo sapiens) [compound 272]
